Patent US20260176289A1, “SMALL MOLECULE INHIBITORS OF KRAS PROTEINS” (Merck Sharp & Dohme LLC, priority 2022, published 2026)
Where two headings read alike, the source gives them in different places.

How the values were obtained:
[1] = biological target: KRAS-WT (Homo sapiens, UniProt P01116); assay: SOS-catalyzed nucleotide exchange assay (Procedure A, TR-FRET), KRAS-WT; type: biochemical; details: nucleotide exchange, read-out: KRAS WT GNE IC50
Summary of the method: (§1)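 Compounds (10-point, 3-fold) were preincubated 60 min at room temperature with a biotinylated RAS/Bodipy-GDP/Tb-streptavidin TR-FRET complex. Exchange was started with human SOS plus 3 mM GTP. RAS/SOS: G12C 3/40 nM, WT 1/40 nM, NRAS 1.25/40 nM (60 min); G12V 1.25/160 nM (90 min). The 520/495 ratio was fit four-parameter.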

[2] = biological target: KRAS-G12D (Homo sapiens, UniProt P01116, G12D); assay: SOS-catalyzed nucleotide exchange assay (Procedure A, TR-FRET), KRAS-G12D; type: biochemical; details: nucleotide exchange, read-out: KRAS G12D GNE IC50
Summary of the method: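 Signal ratio (520/495 nm, excitation 340 nm) reports Bodipy-GDP retention on biotinylated RAS after SOS-catalyzed exchange with 3 mM GTP. SOS was 40 nM, except 160 nM for G12V. Room-temperature exchange lasted 60 min (90 min for G12V), following a 60 min compound preincubation.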

[3] = biological target: KRAS-G12V (Homo sapiens, UniProt P01116, G12V); assay: SOS-catalyzed nucleotide exchange assay (Procedure A, TR-FRET), KRAS-G12V; type: biochemical; details: nucleotide exchange, read-out: KRAS G12V GNE IC50
Summary of the method: as §1

[4] = tested on: MKN-1 cells; assay: Cellular phospho-ERK assay, MKN-1 cells (amplified wild-type KRAS); type: cell-based; details: Homo sapiens, read-out: MKN1 pERK IC50
Protocol: (§2) Procedure for Cellular Phospho-ERK Assay in KRAS Wild Type and Mutant (G12D, G12V) Cell Lines
(§3) MKN-1 cells (JCRB JCRB0252) containing amplified wild-type KRAS, were cultured in growth medium that contains RPMI 1640-GlutaMAX™-I (ThermoFisher Scientific 61870) containing 10% heat inactivated fetal bovine serum (ThermoFisher Scientific 10091148), 1 mM sodium pyruvate and 10 mM HEPES. PANC08.13 cells (ATCC® CRL-2551™), containing homozygous KRAS-G12D activating mutation, were cultured in growth medium made of RPMI1640-GlutaMAX™-I (ThermoFisher Scientific 61870) containing 15% heat inactivated fetal bovine serum (ThermoFisher Scientific 10091148)). AsPC-1 cells (ATCC® CRL-1682™), containing homozygous KRAS-G12D activating mutation, were cultured in T150 flask in growth medium (RPMI medium 1640-GlutaMAX™-I (ThermoFisher Scientific 61870) containing 10% fetal bovine serum (ThermoFisher Scientific 10091148)). SW620 cells (ATCC® […]), containing homozygous KRAS-G12V activating mutation, were cultured in growth medium that contains RPMI 1640-GlutaMAX™-I (ThermoFisher Scientific 61870) containing 10% heat inactivated fetal bovine serum (ThermoFisher Scientific 10091148).
(§4) Cells for the assay were harvested in growth medium after TrypLE (ThermoFisher scientific 12604021) digestion and were seeded in a 384-well collagen coated cell culture plate (Corning 356702) at a density of 10,000-15,000 cells/20 μL/well, and incubated at 37° C., 5% CO2 overnight. The compound (with 10 mM stock concentration) dose-response titrations were prepared [30 μM final ERK detection assay concentration and 1:3 dilutions, 10-point dose response] and appropriate amounts (270 nL) of test compounds were dispensed in a 384-well intermediate plate using an Echo 550 liquid handler. 30 μL/well of RPMI medium 1640-GlutaMAX™—I was added to the intermediate plate and the contents of the intermediate plate (10 μL/well) were then transferred to the 384-well collagen coated cell culture plate, which was incubated at 37° C., 5% CO2 for 2 hours. After removal of medium from the collagen coated cell culture plate, cells were lysed in lysis buffer from Alpha SureFire® Ultra™ Multiplex p-ERK and total ERK assay kit (PerkinElmer MPSU-PTERK) containing Halt™ Protease and Phosphatase inhibitor cocktail (ThermoFisher Scientific 78446) at room temperature with constant shaking at 300 rpm for 30 minutes. The cell lysates were then transferred to an OptiPlate-384 plate (PerkinElmer 6005620), and the phosphorylation of ERK (p-ERK) and total ERK levels were detected by Alpha SureFire® Ultra™ Multiplex p-EEK kit and total ERK assay kit (PerkinElmer MPSU-PTERK) following the manufacturer's protocol. Assay plates were read on a En Vision Multimode Plate Reader (PerkinElmer), and the ratio of p-ERK vs. total ERK in each well was used as the final readout. Dose response curves were analyzed using a 4-parameter logistic model to calculate IC50 values using Spotfire software.

[5] = tested on: AsPC-1 cells; assay: Cellular phospho-ERK assay, AsPC-1 cells (homozygous KRAS-G12D); type: cell-based; details: Homo sapiens, ASPC1, 2 h, read-out: AsPC1 pERK IC50
Summary of the method: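 Cells seeded at 10,000-15,000 per well were incubated overnight, then exposed to compound for 2 hours at 37 °C in a 10-point, 1:3 series topping at 30 μM final. Lysates were assayed by Alpha SureFire Ultra multiplex for p-ERK and total ERK; IC50 came from a 4-parameter logistic fit of their ratio.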

[6] = tested on: SW620 cells; assay: Cellular phospho-ERK assay, SW620 cells (homozygous KRAS-G12V); type: cell-based; details: Homo sapiens, read-out: SW620 pERK IC50
Protocol: as §2, §3, §4

[7] = amplified wild-type KRAS, 2 hours
[8] = SW-620, 2 hours compound incubation

KRAS-WT, sequence (P01116 with tags, fused parts or gaps isoform P01116-2): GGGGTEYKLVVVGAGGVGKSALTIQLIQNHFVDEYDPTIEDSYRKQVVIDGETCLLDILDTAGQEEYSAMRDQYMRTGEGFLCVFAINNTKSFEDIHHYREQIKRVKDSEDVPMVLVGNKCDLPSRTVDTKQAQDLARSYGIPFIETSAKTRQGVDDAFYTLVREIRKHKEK
KRAS-G12D, sequence (P01116 with tags, fused parts or gaps isoform P01116-2 G12D): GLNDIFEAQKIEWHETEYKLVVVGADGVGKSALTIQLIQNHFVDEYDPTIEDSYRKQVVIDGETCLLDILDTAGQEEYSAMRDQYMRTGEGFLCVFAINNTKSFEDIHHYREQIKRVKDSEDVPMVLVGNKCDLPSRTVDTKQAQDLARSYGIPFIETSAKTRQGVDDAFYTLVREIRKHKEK
KRAS-G12V, sequence (P01116 with tags, fused parts or gaps isoform P01116-2 G12V): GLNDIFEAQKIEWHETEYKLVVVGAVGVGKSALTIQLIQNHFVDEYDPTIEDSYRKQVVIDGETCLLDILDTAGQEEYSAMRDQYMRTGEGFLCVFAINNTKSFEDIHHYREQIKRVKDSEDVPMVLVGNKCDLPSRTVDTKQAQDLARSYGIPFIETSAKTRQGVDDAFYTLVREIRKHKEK

Row | SMILES | IC50 [1] [nM] | IC50 [2] [nM] | IC50 [3] [nM] | IC50 [4, 7] [nM] | IC50 ([5]; KRAS-G12D, 2 hours) [nM] | IC50 ([6]; SW-620, KRAS-G12V, 2 hours) [nM] | IC50 ([4]; 2 hours compound incubation) [nM] | IC50 ([5]; 2 hours compound incubation) [nM] | IC50 [6, 8] [nM]
1 | C[C@@]1(O)COCCN(c2nc(OC[C@@]34CCCN3C[C@H](F)C4)nc3sc4c(-c5c(-c6ccoc6)c(Cl)cc6[nH]ncc56)nccc4c23)C1 [Ex-71, (6S)-4-(8-(6-chloro-5-(furan-3-yl)-1H-indazol-4-yl)-2-(((2R,7aS)-2-fluorotetrahydro-1H-pyrrolizin-7a(5H)-yl)methoxy)pyrido[4′,3′:4,5]thi-eno[2,3-d]pyrimidin-4-yl)-6-methyl-1,4-oxazepan-6-ol] | 17.6 | 4 | 11.5 | 50.2 | 66.4 | 150 |  |  | 
2 | C[C@@]1(O)COCCN(c2nc(OC[C@@]34C[C@H](F)CN3CC3(CC3)C4)nc3sc4c(-c5c(C6CC6)c(Cl)cc6[nH]ncc56)nccc4c23)C1 [Ex-219, (6S)-4-(8-(6-chloro-5-cyclopropyl-1H-indazol-fluoro-dihydro-1H,3′H-spiro[cyclopropane-1,2′-yl)methoxy)-pyrido[4′,3′:4,5]thieno[2,3-d]pyr-imidin-4-yl)-6-methyl-1,4-oxaze-pan-6-ol] | 255 | 82.7 | 196 |  |  |  | 318 | 305 | 230
3 | Cc1cc2[nH]ncc2c(-c2nccc3c2sc2nc(OC[C@@]45CCCN4C[C@H](F)C5)nc(N4CCOCC5(CC(C)O5)C4)c23)c1C(F)(F)F (stereo partly drawn) [Ex-199, 9-(2-(((2R,7aS)-2-fluoro-tetrahydro-1H-pyrrolizin-7a(5/7)-yl)methoxy)-8-(6-methyl-5-(trifluorometh-yl)-1H-indazol-4-yl)pyrido [4′,3′:4,5]thieno[2,3-d]pyr-imidin-4-yl)-2-methyl-1,6-dioxa-9-azaspiro[3.6] decane] | 287 | 86.8 | 92.6 |  |  |  | 313 | 374 | 190
4 | C[C@@]1(O)COCCN(c2nc(OC[C@@]34CCCN3C/C(=C\F)C4)nc3sc4c(-c5c(C6CC6)c(C(F)(F)F)cc6[nH]ncc56)nccc4c23)C1 [Ex-87, (6S)-4-(8-(5-cyclopropyl-6-(trifluoromethyl)-1H-indazol-4-yl)-2-(((S,Z)-2-(fluoromethylene)tetrahy-dro-1H-pyrrolizin-7a(5H)-yl)methoxy)pyrido[4′,3′:4,5]thi-eno[2,3-d]pyrimidin-4-yl)-6-methyl-1,4-oxazepan-6-ol] | 80 | 41.6 | 31.4 | 109 | 176 | 96.6 |  |  | 
5 | C[C@@]1(O)COCCN(c2nc(OC[C@@]34CCCN3C[C@H](F)C4)nc3sc4c(-c5c6c(cc7[nH]ncc57)CC=C6C5CC5)nccc4c23)C1 [Ex-105, (6S)-4-(8-(5-cyclopropyl-1,7-dihydrocyclopenta[f]inda-zol-4-yl)-2-(((2R,7aS)-2-fluorotetrahydro-1H-pyrrolizin-7a(5H)-yl)methoxy)pyrido[4′,3′:4,5]thieno[2,3-d]pyrimidin-4-yl)-6-methyl-1,4-oxazepan-6-ol] | 72.2 | 26.7 | 37.2 | 136 | 158 | 80.5 |  |  | 
6 | CN(C)C[C@@]1(COc2nc(N3CCOC[C@@](C)(O)C3)c3c(n2)sc2c(-c4c(C5(F)CC5)c(Cl)cc5[nH]ncc45)nccc23)CC1(F)F [Ex-132, (6S)-4-(8-(6-chloro-5-(1-fluorocyclo-propyl)-1H-indazol-4-yl)-2-(((R)-1-((dimethylamino)-methyl)-2,2-di-fluorocyclopropyl)-methoxy)pyrido [4′,3′:4,5]thieno[2,3-d]pyrimidin-4-yl)-6-methyl-1,4-oxaze-pan-6-ol] | 15.7 | 5.45 | 13.9 |  |  |  | 44.4 | 24 | 14.5
7 | Cc1cc2[nH]ncc2c(-c2nccc3c2sc2nc(OC[C@@]45CCCN4C[C@H](F)C5)nc(N4CCOC[C@@](C)(O)C4)c23)c1C1(F)CC1 [Ex-54, (6S)-4-(8-(5-(1-fluorocyclopropyl)-6-methyl-1H-indazol-4-yl)-2-(((2R,7aS)-2-fluorotetrahydro-1H-pyrrolizin-7a(5H)-yl)methoxy)pyrido[4′,3′:4,5]thi-eno[2,3-d)pyrimidin-4-yl)-6-methyl-1,4-oxazepan-6-ol] | 10.8 | 5.06 | 11.1 | 56.5 | 84.6 | 186 |  |  | 
8 | Cn1c2nc(OC[C@@]34CCCN3C[C@H](F)C4)nc(N3CCOC[C@@](C)(O)C3)c2c2ccnc(-c3c(C4(F)CC4)c(Cl)cc4[nH]ncc34)c21 (single isomer, unassigned) [Ex-3] | 17.2 | 10.5 | 15.3 | 134 | 207 | 95.5 |  |  | 
9 | CN1CCC[C@H]1COc1nc(N2CCOC[C@@](C)(O)C2)c2c(n1)sc1c(-c3c(C4CC4)c(Cl)cc4[nH]ncc34)nccc12 [Ex-80, (6S)-4-(8-(6-chloro-5-cyclopropyl-1H-indazol-4-yl)-2-(((S)-1-methylpyrrolidin-2-yl)methoxy)pyrido[4′,3′:4,5]thi-eno[2,3-d]pyrimidin-4-yl)-6-methy1-1,4-oxazepan-6-ol] | 89 | 32.7 | 42 | 143 | 200 | 131 |  |  | 
10 | C[C@@]1(O)COCCN(c2nc(OC[C@@]34CCCN3C[C@H](F)C4)nc3sc4c(-c5c(C6(F)CC6)c(C(F)(F)F)cc6[nH]ncc56)nccc4c23)C1 [Ex-55, (6S)-4-(8-(5-(1-fluorocyclopropyl)-6-(trifluoromethyl)-1H-indazol-4-yl)-2-(((2R,7aS)-2-fluorotetrahydro-1H-pyrrolizin-7a(5H)-yl)methoxy)pyrido[4′,3′:4,5]thi-eno[2,3-d]pyrimidin-4-yl)-6-methyl-1,4-oxazepan-6-ol] | 26.4 | 9.34 | 18.2 | 45 | 107 | 45.9 |  |  | 
11 | CCC1(F)c2c(cc3[nH]ncc3c2-c2nccc3c2sc2nc(OC[C@@]45CCCN4C[C@H](F)C5)nc(N4CCOC[C@@](C)(O)C4)c23)CC1(F)F (stereo partly drawn) [Ex-98, (6S)-4-(8-(5-ethy1-5,6,6-trifluoro-1,5,6,7-tetrahydrocyclopenta[f]in-dazol-4-yl)-2-(((2R,7aS)-2-fluorotetrahydro-1H-pyrrolizin-7a(5H)-yl)methoxy)pyrido[4′,3′:4,5]thi-eno[2,3-d]pyrimidin-4-yl)-6-methyl-1,4-oxazepan-6-ol] | 61.3 | 18.9 | 20.8 | 72.8 | 175 | 68.8 |  |  | 
